Patent publication US20230332103A1, “Methods and Compositions for Generating Human Forebrain Neural Progenitor Cells and for Maturation Thereof to Parvalbumin+ Interneurons” (Trailhead Biosystems Inc., priority 2021, published 2023)

Key:
[1] = test system: human pluripotent stem cells; assay: factor criticality analysis (dynamic profile analysis) of stage 1 recipe; type: cell-based; set-up: unit not given here; conditions: other five factors present; for expression level of FEZF2 when the effector is removed: 2000 with all six factors; for expression level of SIX3 when the effector is removed: 3000 with all six factors; for expression level of OTX2 when the effector is removed: 5500 with all six factors
Description: (§1) To assess the impact of the elimination of each validated factor, dynamic profile analysis was used and compared the expression level of genes of interest in absence of each finalized factor while others are present.
In the stage 1 recipe, each of the six finalized factors were removed individually while the other five factors were present and expression levels of forebrain genes was assessed compared to the presence of all six factors together. The results are summarized in FIG. 11A-B. When LDN193189 was removed, expression levels of FEZF2, OTX2 and SIX3 were decreased drastically from 2000 to 1000, 5500 to 4000 and 3000 to 0, respectively. […] When Purmorphamine was removed, levels of FEZF2 and SIX3 were decreased to 1000 and below 3000, while levels of OTX2 increased to 6500.

[2] = test system: human pluripotent stem cells; assay: additional HD-DoE experiment for stage 1 (forebrain differentiation from pluripotency), optimized for FEZF2; type: cell-based; conditions: for impact on expression of FEZF2: dynamic profile, FIG. 6; for factor contribution on expression of FEZF2: positive impact, additional stage 1 experiment optimized for FEZF2, FIG. 5
Description: To identify the recipe for stage 1 of differentiation, 96 different combinations of effectors generated using Design-of-Experiments compression through D-optimality were robotically prepared. The effector combinations were prepared in a basal media and were subsequently added to the cells, which were then allowed to differentiate. Three days later RNA extraction was performed, and gene expression was obtained using quantitative PCR analysis. The data were normalized and modeled using partial least squares regression analysis to the effector design, resulting in the generation of gene-specific models, which after model tuning for maximal Q2 predictive power, provided explanation of the effectors ability to control the expression of individual genes, combinatorially, and individually. Solutions within the tested space could then be explored to address desirability.
To further enhance the conditions for forebrain differentiation from pluripotency, an additional HD-DoE experiment was performed. Additional gene regulatory models were obtained that were used for preparation of the differentiation protocol. The factors in this experiment included LDN193189, PD173074, BLU9931, Purmorphamine, SC79, MK2206, ZM336372, PD0325901, CHIR99021, XAV939, UCLA-GP130, Tofacitinib and GO6983. […] Dynamic profile analysis was also used to assess the interaction between the effectors.

[3] = test system: forebrain-committed neural stem cells (stage 1 neural stem cells); assay: factor criticality analysis (dynamic profile analysis) of stage 2 recipe; type: cell-based, human
Description: as §1
In the stage 2 recipe, each of the four finalized factors were removed while the other three factors remained present and expression levels of NKX2-1, PAX6 and NKX2-2 were assessed compared to presence of all four factors. The results are summarized in FIG. 13A-B. Absence of PD0325901 reduced the levels of NKX2-1 and NKX2-2 while increasing PAX6 from 5000 to 3200, 100 to 0 and 0 to 5000, respectively. […] Removing XAV939 reduced the levels of NKX2-1 from 5000 to 3000, while increasing both PAX6 and NKX2-2 to 10000 and 200, respectively. Another observation was the interaction between XAV939 and Purmorphamine. In the absence of XAV939, the impact of Purmorphamine on NKX2-1 became negative and, as it is shown in interaction plot of FIG. 14, the level of NKX2-1 is higher when both factors are present.

[4] = test system: human pluripotent stem cells; assay: HD-DoE 12-factor experiment for stage 1 recipe, gene expression by quantitative PCR after 3 days; type: cell-based; conditions: for factor contribution on expression of SIX3: model optimized for maximal expression of SIX3, 3-day treatment; for factor contribution on expression of FEZF2: model optimized for maximum expression of FEZF2
Source text: This example utilizes a method of High-Dimensional Design of Experiments (HD-DoE), as previously described in Bukys et al. (2020) […] 23:101346. The method employs computerized design geometries to simultaneously test multiple process inputs and offers mathematical modeling of a deep effector/response space. The method allows for finding combinatorial signaling inputs that control a complex process, such as during cell differentiation. It allows testing of multiple plausible critical process parameters, as such parameters impact output responses, such as gene expression. Because gene expression provides hallmark features of the phenotype of, for example, a human cell, the method can be applied to identify, and understand, which signaling pathways control cell fate. In the current example, the HD-DOE method was applied with the intent to find conditions for induction of […] neural progenitor-expressed genes, directly from the pluripotent stem cell state. To develop the recipe for each stage, the impact of agonists and antagonists of multiple signaling pathways (herein called effectors) on the expression of two sets of 53 pre-selected genes, after a 3-day treatment, has been tested and modeled. These effectors are small molecules or proteins that are commonly used during stepwise differentiation of stem cells to specific fates. Choice of the effectors were based on current literature on neural induction in forebrain region of developing brain and differentiation of stem cells to neural progenitors. To test the effectors, experiments with at least 8 factors were designed that can assess the response of cells to 48 or more different combinations of effectors in a range of concentrations. To analyze the models, we focused on expression of genes involved in development and patterning of the anterior neuroectoderm and forebrain including OTX2 (Hoch et al. (2015) Cell Reports 12:482-494), SIX3 (Lagutin et al. (2003) Genes & Development 17:368-379) and FEZF2 (Zhang et al. (2014) Development 141:4794-[…]). At later stages we focused on dorsoventral patterning of telencephalon and gene expressed in ventral forebrain including NKX2-1 and absence of PAX6 which is a dorsal forebrain marker (Stoykova et al. (2000) J. Neurosci. 20:8042-8050). The impact of each effector on gene expression level is defined by a parameter called factor contribution that is calculated for each effector during the modeling. To identify the recipe for stage 1 of differentiation, 96 different combinations of effectors generated using Design-of-Experiments compression through D-optimality were robotically prepared. The effector combinations were prepared in a basal media and were subsequently added to the cells, which were then allowed to differentiate. Three days later RNA extraction was performed, and gene expression was obtained using quantitative PCR analysis. […] Solutions within the tested space could then be explored to address desirability. Optimizing for maximal expression of SIX3 at 3300 and FEZF2 1355 expression values led to robust solutions. This model was derived from testing 12 effectors including AGN193109, LDN193189, CHIR99021, XAV939, IGF2, Purmorphamine, 4-oxo-RA, TTNPB, SR11237, FGF8, PD0325901 and […]. […] The model was also optimized for maximum expression of FEZF2 separately at 3576 expression value to find any additional factors that can boost expression of forebrain genes. […] To find the set of factors that have the potential to optimize all 3 genes in this experiment, a new assessment was done through dynamic profile analysis with focus on maximal expression of OTX2, FEZF2 and SIX3.

[5] = dynamic profile analysis, FIG. 4

Compound	expression level of FEZF2 when the effector is removed [1]	expression level of SIX3 when the effector is removed [1]	expression level of OTX2 when the effector is removed [1]	impact on expression of FEZF2 [2]	factor contribution on expression of FEZF2 [2]	expression level of PAX6 in the absence of the effector ([3]; stage 2 recipe, other three factors present, 0 with all four factors)	expression level of NKX2-2 in the absence of the effector ([3]; stage 2 recipe, other three factors present, 100 with all four factors)	expression level of NKX2-1 in the absence of the effector ([3]; stage 2 recipe, other three factors present, 5000 with all four factors)	factor contribution, important input for high expression of SIX3 ([4]; FIG. 2 legend, model optimized for maximum expression of SIX3 as printed)	impact on expression of OTX2 [4, 5]	factor contribution on expression of OTX2 ([4]; positive impact, model of maximum expression of OTX2)	factor contribution on expression of SIX3 ([4]; positive impact)	factor contribution on expression of FEZF2 ([4]; positive impact)	impact on NKX2-1 in the absence of XAV939 ([3]; interaction between XAV939 and Purmorphamine, FIG. 14)	impact on expression of FEZF2 [4, 5]	impact on expression of SIX3 [4, 5]
c1ccc2c(-c3cnn4cc(-c5ccc(N6CCNCC6)cc5)cnc34)ccnc2c1 [LDN193189]	1000	0	4000	positive impact	18	below 0	below 0	did not significantly change	24.9	positive impact	8	16	25	–	–	–
c1ccc2c(Oc3nc(Nc4ccc(N5CCOCC5)cc4)c4ncn(C5CCCCC5)c4n3)cccc2c1 [Purmorphamine]	1000	below 3000	6500	positive impact	11	–	–	–	–	negative effect	–	5	7	negative	positive impact	positive impact
